Key:
Test in all cases: relative viability (nuclei count vs DMSO), 5 days (fraction); higher = more cells survive
A-427 = tested on: A-427
Outline: (§1)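 After 5 days of treatment, lung cancer cells in 1536-well plates were fixed and stained in a single step (final 0.05% Triton X-100, 1% formaldehyde, 1 ug/ml Hoechst) and their nuclei counted on 4× images. Treatment had been applied by pin tool the day after seeding as one drug alone or as a fixed anchor-drug dose with five library-drug doses (not always all listed) in √10 steps. Relative viability is the nuclei count of treated wells divided by that of vehicle wells, and values are medians of duplicate plates.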

HCC-15 = tested on: HCC-15
Outline: as §1

HCC-78 = tested on: HCC-78
Outline: as §1

HOP-62 = tested on: HOP-62
Outline: as §1

LC-2-ad = tested on: LC-2-ad
Outline: as §1

LOU-NH91 = tested on: LOU-NH91
Outline: as §1

LXF-289 = tested on: LXF-289
Outline: as §1

NCI-H1734 = tested on: NCI-H1734
Outline: as §1

NCI-H1755 = tested on: NCI-H1755
Outline: as §1

NCI-H1792 = tested on: NCI-H1792
Outline: as §1

NCI-H1915 = tested on: NCI-H1915
Outline: as §1

NCI-H1975 = tested on: NCI-H1975
Outline: as §1

NCI-H2126 = tested on: NCI-H2126
Outline: as §1

NCI-H2228 = tested on: NCI-H2228
Outline: as §1

NCI-H2347 = tested on: NCI-H2347
Outline: as §1

NCI-H460 = tested on: NCI-H460
Outline: as §1

NCI-H647 = tested on: NCI-H647
Outline: as §1

PC-3 [JPC-3] = tested on: PC-3 [JPC-3]
Outline: as §1

RERF-LC-KJ = tested on: RERF-LC-KJ
Outline: as §1

SK-LU-1 = tested on: SK-LU-1
Outline: as §1

SW 1573 = tested on: SW 1573
Outline: as §1

Compound `Clc1ccc(Nc2nnc(Cc3ccncc3)c3ccccc23)cc1` [Vatalanib] + CC(C)C[C@H](NC(=O)[C@H](Cc1ccccc1)NC(=O)c1cnccn1)B(O)O [Bortezomib] (partner 0.002 µM) has a relative viability (A-427; first compound 0.04 µM) of 0.965, a relative viability (A-427; first compound 0.1265 µM) of 0.926 and a relative viability (A-427; first compound 0.4 µM) of 0.96. For the same compound, the relative viability (A-427; first compound 1.265 µM) was 0.941, the relative viability (A-427; first compound 4 µM) was 0.997 and the relative viability (HCC-15; first compound 0.04 µM) was 1.15. It also gave a relative viability (HCC-15; first compound 0.1265 µM) of 1.03, a relative viability (HCC-15; first compound 0.4 µM) of 1.03 and a relative viability (HCC-15; first compound 1.265 µM) of 0.978. For the same compound, the relative viability (HCC-15; first compound 4 µM) was 1.04, the relative viability (HCC-78; first compound 0.04 µM) was 0.391 and the relative viability (HCC-78; first compound 0.1265 µM) was 0.493. The relative viability (HCC-78; first compound 0.4 µM) was 0.474, the relative viability (HCC-78; first compound 1.265 µM) was 0.495 and the relative viability (HCC-78; first compound 4 µM) was 0.571. It also gave a relative viability (HOP-62; first compound 0.04 µM) of 0.977, a relative viability (HOP-62; first compound 0.4 µM) of 0.857 and a relative viability (HOP-62; first compound 1.265 µM) of 0.849. The relative viability (HOP-62; first compound 4 µM) was 1.09, the relative viability (LC-2-ad; first compound 0.04 µM) was 0.987 and the relative viability (LC-2-ad; first compound 0.1265 µM) was 1.01. For the same compound, the relative viability (LC-2-ad; first compound 0.4 µM) was 1.17, the relative viability (LC-2-ad; first compound 1.265 µM) was 1 and the relative viability (LC-2-ad; first compound 4 µM) was 0.952. The relative viability (LOU-NH91; first compound 0.04 µM) was 0.491, the relative viability (LOU-NH91; first compound 0.1265 µM) was 0.43 and the relative viability (LOU-NH91; first compound 0.4 µM) was 0.464. It also gave a relative viability (LOU-NH91; first compound 1.265 µM) of 0.493, a relative viability (LOU-NH91; first compound 4 µM) of 0.468 and a relative viability (LXF-289; first compound 0.04 µM) of 1.07. The relative viability (LXF-289; first compound 0.1265 µM) was 0.976, the relative viability (LXF-289; first compound 0.4 µM) was 0.991 and the relative viability (LXF-289; first compound 1.265 µM) was 0.931. It also gave a relative viability (LXF-289; first compound 4 µM) of 0.964, a relative viability (NCI-H1734; first compound 0.04 µM) of 1.02 and a relative viability (NCI-H1734; first compound 0.1265 µM) of 1.04. It also gave a relative viability (NCI-H1734; first compound 0.4 µM) of 1.15, a relative viability (NCI-H1734; first compound 1.265 µM) of 0.827 and a relative viability (NCI-H1734; first compound 4 µM) of 0.893. The relative viability (NCI-H1755; first compound 0.04 µM) was 0.938, the relative viability (NCI-H1755; first compound 0.1265 µM) was 0.926 and the relative viability (NCI-H1755; first compound 0.4 µM) was 0.992. For the same compound, the relative viability (NCI-H1755; first compound 1.265 µM) was 0.88, the relative viability (NCI-H1755; first compound 4 µM) was 0.974 and the relative viability (NCI-H1792; first compound 0.04 µM) was 0.946. It also gave a relative viability (NCI-H1792; first compound 0.1265 µM) of 0.9, a relative viability (NCI-H1792; first compound 0.4 µM) of 0.915 and a relative viability (NCI-H1792; first compound 1.265 µM) of 0.921. The relative viability (NCI-H1792; first compound 4 µM) was 0.972, the relative viability (NCI-H1915; first compound 0.04 µM) was 0.949 and the relative viability (NCI-H1915; first compound 0.1265 µM) was 0.923. For the same compound, the relative viability (NCI-H1915; first compound 0.4 µM) was 0.993, the relative viability (NCI-H1915; first compound 1.265 µM) was 0.936 and the relative viability (NCI-H1915; first compound 4 µM) was 0.987. The relative viability (NCI-H1975; first compound 0.04 µM) was 0.407, the relative viability (NCI-H1975; first compound 0.1265 µM) was 0.352 and the relative viability (NCI-H1975; first compound 0.4 µM) was 0.422. The relative viability (NCI-H1975; first compound 1.265 µM) was 0.374, the relative viability (NCI-H1975; first compound 4 µM) was 0.379 and the relative viability (NCI-H2126; first compound 0.04 µM) was 1.06. It also gave a relative viability (NCI-H2126; first compound 0.1265 µM) of 1.14, a relative viability (NCI-H2126; first compound 0.4 µM) of 1.17 and a relative viability (NCI-H2126; first compound 1.265 µM) of 1.1. It also gave a relative viability (NCI-H2126; first compound 4 µM) of 1.13, a relative viability (NCI-H2228; first compound 0.04 µM) of 0.865 and a relative viability (NCI-H2228; first compound 0.1265 µM) of 0.803. For the same compound, the relative viability (NCI-H2228; first compound 0.4 µM) was 0.94, the relative viability (NCI-H2228; first compound 1.265 µM) was 0.951 and the relative viability (NCI-H2228; first compound 4 µM) was 1.11. For the same compound, the relative viability (NCI-H2347; first compound 0.1265 µM) was 0.898, the relative viability (NCI-H2347; first compound 0.4 µM) was 0.855 and the relative viability (NCI-H2347; first compound 1.265 µM) was 0.973. It also gave a relative viability (NCI-H2347; first compound 4 µM) of 0.865, a relative viability (NCI-H460; first compound 0.04 µM) of 1.07 and a relative viability (NCI-H460; first compound 0.1265 µM) of 0.919. For the same compound, the relative viability (NCI-H460; first compound 0.4 µM) was 1.03, the relative viability (NCI-H460; first compound 1.265 µM) was 1.03 and the relative viability (NCI-H460; first compound 4 µM) was 1.02. For the same compound, the relative viability (NCI-H647; first compound 0.04 µM) was 1.05, the relative viability (NCI-H647; first compound 0.1265 µM) was 0.971 and the relative viability (NCI-H647; first compound 0.4 µM) was 1.07. For the same compound, the relative viability (NCI-H647; first compound 1.265 µM) was 0.943, the relative viability (NCI-H647; first compound 4 µM) was 1.06 and the relative viability (PC-3 [JPC-3]; first compound 0.04 µM) was 0.785. The relative viability (PC-3 [JPC-3]; first compound 0.1265 µM) was 0.828, the relative viability (PC-3 [JPC-3]; first compound 0.4 µM) was 0.82 and the relative viability (PC-3 [JPC-3]; first compound 1.265 µM) was 0.856. The relative viability (PC-3 [JPC-3]; first compound 4 µM) was 0.721, the relative viability (RERF-LC-KJ; first compound 0.04 µM) was 1.05 and the relative viability (RERF-LC-KJ; first compound 0.1265 µM) was 1.1. The relative viability (RERF-LC-KJ; first compound 0.4 µM) was 0.958, the relative viability (RERF-LC-KJ; first compound 1.265 µM) was 0.904 and the relative viability (RERF-LC-KJ; first compound 4 µM) was 0.969. For the same compound, the relative viability (SK-LU-1; first compound 0.04 µM) was 1.25, the relative viability (SK-LU-1; first compound 0.1265 µM) was 0.981 and the relative viability (SK-LU-1; first compound 1.265 µM) was 1.19. The relative viability (SK-LU-1; first compound 4 µM) was 1.14, the relative viability (SW 1573; first compound 0.04 µM) was 1.15 and the relative viability (SW 1573; first compound 0.1265 µM) was 0.96. The relative viability (SW 1573; first compound 0.4 µM) was 1.21, the relative viability (SW 1573; first compound 1.265 µM) was 0.972 and the relative viability (SW 1573; first compound 4 µM) was 1.09.

Source: the supplement of paper PMC10307832
